From US4272437A, “Antibacterial agents, and 4-thio azetidinone intermediates” (priority 1979, dated 1981)
In brackets after ≈: the same amount, converted by molar mass. Where a name gives a salt, the structure may show the parent alone. Read-outs that look alike come from different tables or passages of the source.

Assays:
Ser. marcescens A-20019 = assay: MIC, tube dilution, Serratia marcescens A20019; type: cell-based; conditions: Serratia marcescens, A20019, Serratia marcescens A20019; overnight 37° C.; read-out: Minimum Inhibitory Concentration (M.I.C.)
Description: (§1) Representative compounds of the present invention were subjected to in vitro antibiotic screening against a variety of microorganisms.

Pr. mirabilis A-9900 = assay: MIC, tube dilution, Proteus mirabilis A9900; type: cell-based; conditions: Proteus mirabilis, A9900, Proteus mirabilis A9900; overnight 37° C.; read-out: Minimum Inhibitory Concentration (M.I.C.)
Description: as §1

Ent. cloacae A-9656 = assay: MIC, tube dilution, Enterobacter cloacae A9656; type: cell-based; conditions: overnight 37° C., read-out: Minimum Inhibitory Concentration (M.I.C.)
Description: as §1

Proteus rettgeri A21203 = assay: MIC, tube dilution, Proteus rettgeri A21203; type: cell-based; conditions: Providencia rettgeri, overnight 37° C., read-out: Minimum Inhibitory Concentration (M.I.C.)
Description: as §1

Proteus vulgaris A21559 = assay: MIC, tube dilution, Proteus vulgaris A21559; type: cell-based; conditions: Proteus vulgaris
Description: as §1

Ps. aeruginosa A-21213 = assay: MIC, tube dilution, Pseudomonas aeruginosa A21213; type: cell-based; conditions: overnight 37° C., read-out: Minimum Inhibitory Concentration (M.I.C.)
Description: as §1

[1] = test system: Staph. aureus A-9537 and 50% serum; assay: MIC, tube dilution, Staph. aureus A9537 + 50% serum; type: cell-based, Staphylococcus aureus; conditions: Staphylococcus aureus, overnight 37° C., read-out: Minimum Inhibitory Concentration (M.I.C.)
Description: as §1

[2] = test system: Staph. aureus (Meth-Res) A-15097; assay: MIC, tube dilution, Staphylococcus aureus A15097 (Meth-Res); type: cell-based; conditions: Staphylococcus aureus, overnight 37° C.
Description: as §1

Ps. aeruginosa A-9843A = assay: MIC, tube dilution, Pseudomonas aeruginosa A9843A; type: cell-based; conditions: Pseudomonas aeruginosa, A9843A, read-out: Minimum Inhibitory Concentration (M.I.C.), Pseudomonas aeruginosa A9843A; overnight 37° C.
Description: as §1

Pr. morganii A-15153 = assay: MIC, tube dilution, Proteus morganii A15153; type: cell-based; conditions: Morganella morganii, A15153, Proteus morganii A15153; overnight 37° C.; read-out: Minimum Inhibitory Concentration (M.I.C.)
Description: as §1

Ent. cloacae A-9659 = assay: MIC, tube dilution, Enterobacter cloacae A9659; type: cell-based; conditions: Enterobacter cloacae, A9659, Enterobacter cloacae A9659; overnight 37° C.; read-out: Minimum Inhibitory Concentration (M.I.C.)
Description: as §1

Str. pneumoniae A-9585 = assay: MIC, tube dilution, Streptococcus pneumoniae A9585; type: cell-based; conditions: Streptococcus pneumoniae, A9585, Str. pneumoniae A9585; overnight 37° C., Nutrient Broth; read-out: Minimum Inhibitory Concentration (M.I.C.)
Description: as §1

E. coli A-20341-1 = assay: MIC, tube dilution, Escherichia coli A20341-1; type: cell-based
Description: as §1

[3] = test system: Staph. aureus (Pen-Res) A-9606; assay: MIC, tube dilution, Staphylococcus aureus A9606 (Pen-Res); type: cell-based; conditions: Staphylococcus aureus, overnight 37° C.
Description: as §1

Str. faecalis A-20688 = assay: MIC, tube dilution, Streptococcus faecalis A20688; type: cell-based; conditions: Enterococcus faecalis, A20688, Str. faecalis A20688; overnight 37° C.; read-out: Minimum Inhibitory Concentration (M.I.C.)
Description: as §1

Staph. aureus A-9537 = assay: MIC, tube dilution, Staphylococcus aureus A9537; type: cell-based; conditions: Staphylococcus aureus, A9537, Staph. aureus A9537; overnight 37° C., Nutrient Broth; read-out: Minimum Inhibitory Concentration (M.I.C.)
Description: as §1

E. coli A-15119 = assay: MIC, tube dilution, Escherichia coli A15119; type: cell-based; conditions: Escherichia coli, A15119, E. coli A15119; overnight 37° C.; read-out: Minimum Inhibitory Concentration (M.I.C.)
Description: as §1

K. pneumoniae A-15130 = assay: MIC, tube dilution, Klebsiella pneumoniae A15130; type: cell-based; conditions: Klebsiella pneumoniae, A15130, K. pneumoniae A15130; overnight 37° C.; read-out: Minimum Inhibitory Concentration (M.I.C.)
Description: as §1

[4] = test system: Klebsiella species A20468; assay: MIC, tube dilution, Klebsiella species A20468; type: cell-based; conditions: Klebsiella species (K. pneumoniae) A20468; overnight 37° C.; read-out: Minimum Inhibitory Concentration (M.I.C.)
Description: as §1

Str. pyogenes A-9604 = assay: MIC, tube dilution, Streptococcus pyogenes A9604; type: cell-based; conditions: Streptococcus pyogenes, A9604, Str. pyogenes A9604; overnight 37° C., Nutrient Broth; read-out: Minimum Inhibitory Concentration (M.I.C.)
Description: as §1

[5] = Enterobacter cloacae, A9656, Enterobacter cloacae A9656
[6] = A21203, Proteus rettgeri A21203
[7] = A21559, Proteus vulgaris A21559, overnight 37° C., read-out: Minimum Inhibitory Concentration (M.I.C.)
[8] = Pseudomonas aeruginosa, A21213, Pseudomonas aeruginosa A21213
[9] = Staph. aureus A15097 (Meth-Res), read-out: Minimum Inhibitory Concentration (M.I.C.)
[10] = Escherichia coli, A203411, E. coli A20341-1; overnight 37° C.; read-out: Minimum Inhibitory Concentration (M.I.C.)
[11] = Staph. aureus A9606 (Pen-Res), read-out: Minimum Inhibitory Concentration (M.I.C.)
[12] = A21559, read-out: Minimum Inhibitory Concentration (M.I.C.)
[13] = read-out: Minimum Inhibitory Concentration (M.I.C.), Staph. aureus A15097 (Meth-Res)
[14] = Escherichia coli, A203411; E. coli A20341-1; overnight 37° C.; read-out: Minimum Inhibitory Concentration (M.I.C.)
[15] = read-out: Minimum Inhibitory Concentration (M.I.C.), Staph. aureus A9606 (Pen-Res)

| SMILES | MIC (Ser. marcescens A-20019) [µg/mL] | MIC (Pr. mirabilis A-9900) [µg/mL] | MIC (Ent. cloacae A-9656; [5]) [µg/mL] | MIC (Proteus rettgeri A21203; [6]) [µg/mL] | MIC (Proteus vulgaris A21559; [7]) [µg/mL] | MIC (Ps. aeruginosa A-21213; [8]) [µg/mL] | MIC [1] [µg/mL] | MIC [2, 9] [µg/mL] | MIC (Ps. aeruginosa A-9843A) [µg/mL] | MIC (Pr. morganii A-15153) [µg/mL] | MIC (Ent. cloacae A-9659) [µg/mL] | MIC (Str. pneumoniae A-9585) [µg/mL] | MIC (E. coli A-20341-1; [10]) [µg/mL] | MIC [3, 11] [µg/mL] | MIC (Str. faecalis A-20688) [µg/mL] | MIC (Staph. aureus A-9537) [µg/mL] | MIC (E. coli A-15119) [µg/mL] | MIC (K. pneumoniae A-15130) [µg/mL] | MIC [4] [µg/mL] | MIC (Str. pyogenes A-9604) [µg/mL] | also measured |
| --- | --- | --- | --- | --- | --- | --- | --- | --- | --- | --- | --- | --- | --- | --- | --- | --- | --- | --- | --- | --- | --- |
| CC1=C(C(=O)O)N2C(=O)[C@H]([C@@H](C)N)[C@H]2S1 (relative stereo) [Example 70, (1'R,5R,6S and 1'S,5S,6R) 6-1'Amino-1'-ethyl)-2-methylpenem-3-carboxylic Acid] | > 63 | > 63 | > 63 | > 63 | > 63 | > 63 | > 32 | > 63 | > 63 | > 63 | > 63 | > 63 | > 63 | > 63 | > 63 | > 63 | > 63 | > 63 | > 63 | > 63 |  |
| CC1=C(C(=O)O)N2C(=O)[C@H](CNC=O)[C@H]2S1 (relative stereo) [Example 92, 6-Formamidomethyl-2-methylpenem-3-carboxylic acid, sodium and potassium salts] | 63 | 32 | 63 | 32 | 32 | > 63 | 32 | 32 | > 63 | 63 | 63 | 0.5 | 32 | 16 | > 63 | 8 | 32 | 63 | 63 | 0.5 |  |
| CC[C@H](O)[C@H]1C(=O)N2C(C(=O)O)=C(C)S[C@H]12 (relative stereo) [Example 93, (1'S,5R,6S, and 1'R,5S,6R) 6-(1'--Hydroxy-1'-propyl)-2-methylpenem-3-carboxylic acid, sodium salt (isomer C)] | > 125 | > 125 |  |  |  |  | > 63 |  | > 125 | > 125 | > 125 | > 125 |  |  | > 125 | > 125 | > 125 | > 125 | > 125 | > 125 | MIC (Ent. cloacae A-9656; Enterobacter cloacae A9656): > 125 µg/mL; MIC (Proteus rettgeri A21203; Proteus rettgeri A21203): > 125 µg/mL; MIC (Proteus vulgaris A21559; [12]): > 125 µg/mL; MIC (Ps. aeruginosa A-21213; Pseudomonas aeruginosa A21213): > 125 µg/mL; MIC [2, 13]: > 125 µg/mL; MIC (E. coli A-20341-1; [14]): > 125 µg/mL; MIC [3, 15]: > 125 µg/mL |
| CC[C@@H](O)[C@H]1C(=O)N2C(C(=O)O)=C(C)S[C@H]12 (relative stereo) [Example 94, (1'R,5R,6S and 1'S,5S,6R) 6-(1'-Hydroxy-1'-propyl)-2-methylpenem-3carboxylic acid, sodium and potassium salts (isomer B)] | > 125 | > 125 |  |  |  |  | > 63 |  | > 125 | > 125 | > 125 | 1 |  | 32 | > 125 | 32 | > 125 | > 125 | > 125 | 16 | MIC (Ent. cloacae A-9656; Enterobacter cloacae A9656): > 125 µg/mL; MIC (Proteus rettgeri A21203; Proteus rettgeri A21203): > 125 µg/mL; MIC (Proteus vulgaris A21559; [12]): > 125 µg/mL; MIC (Ps. aeruginosa A-21213; Pseudomonas aeruginosa A21213): > 125 µg/mL; MIC [2, 13]: > 125 µg/mL; MIC (E. coli A-20341-1; [14]): > 125 µg/mL |
| CC1=C(C(=O)O)N2C(=O)[C@H]([C@H](O)Cc3ccccc3)[C@H]2S1 (relative stereo) [Example 95, (1'R,5R,6S and 1'S,5S,6R) 6-(1'-Hydroxy-2'-phenylethyl)-2-methylpenem-3-carboxylic acid (isomer B)] | > 125 | > 125 |  |  |  |  | > 63 |  | > 125 | > 125 | > 125 | 32 (≈ 105 µM) |  |  | > 125 | 125 (≈ 409 µM) | > 125 | > 125 | > 125 | 32 (≈ 105 µM) | MIC (Ent. cloacae A-9656; Enterobacter cloacae A9656): > 125 µg/mL; MIC (Proteus rettgeri A21203; Proteus rettgeri A21203): > 125 µg/mL; MIC (Proteus vulgaris A21559; [12]): > 125 µg/mL; MIC (Ps. aeruginosa A-21213; Pseudomonas aeruginosa A21213): > 125 µg/mL; MIC [2, 13]: > 125 µg/mL; MIC (E. coli A-20341-1; [14]): > 125 µg/mL; MIC [3, 15]: > 125 µg/mL |
| CC1=C(C(=O)O)N2C(=O)[C@H]([C@H]3COC(C)(C)O3)[C@H]2S1 (relative stereo) [Example 104, (4'S,5R,6S and 4'R,5S,6R) 6-(2',2'-Dimethyl-1',3'-dioxolan-4'-yl)-2-methylpenem-3-carboxylic Acid (Isomer B)] | > 63 | > 63 | > 63 | 63 (≈ 221 µM) | > 63 | 63 (≈ 221 µM) | > 32 | 63 (≈ 221 µM) | 63 (≈ 221 µM) | > 63 | > 63 | 16 (≈ 56.1 µM) | > 63 | 63 (≈ 221 µM) | 63 (≈ 221 µM) | 63 (≈ 221 µM) | > 63 | > 63 | > 63 | 32 (≈ 112 µM) |  |
| COCOC[C@H](O)[C@H]1C(=O)N2C(C(=O)O)=C(C)S[C@H]12 (relative stereo) [Example 105, (1'R,5R,6S and 1'S,5S,6R) 6-(1'-Hydroxy-2'-methoxymethoxy-2'-ethyl)-2-methylpenem-3-carboxylic acid (Isomer C)] | > 63 | > 63 | 63 (≈ 218 µM) | 32 (≈ 111 µM) | > 63 | 63 (≈ 218 µM) | > 32 | > 63 | 63 (≈ 218 µM) | > 63 | 63 (≈ 218 µM) | 4 (≈ 13.8 µM) | 63 (≈ 218 µM) | 63 (≈ 218 µM) | > 63 | > 8 | 63 (≈ 218 µM) | 63 (≈ 218 µM) | > 63 | 4 (≈ 13.8 µM) |  |
| COCOC[C@@H](O)[C@H]1C(=O)N2C(C(=O)O)=C(C)S[C@H]12 (relative stereo) [Example 106, (1'S,5R,6S and 1'R,5S,6R) 6-(1'-Hydroxy-2'-methoxymethoxy-2'-ethyl)-2-methylpenem-3-carboxylic acid (Isomer B)] | 63 (≈ 218 µM) | 63 (≈ 218 µM) | 63 (≈ 218 µM) | 63 (≈ 218 µM) | > 63 | 63 (≈ 218 µM) | > 32 | > 63 | 63 (≈ 218 µM) | > 63 | > 63 | 32 (≈ 111 µM) | 63 (≈ 218 µM) | > 63 | > 63 | 63 (≈ 218 µM) | 63 (≈ 218 µM) | > 63 | > 63 | 32 (≈ 111 µM) |  |
